Values of other authors, collected in patent US20110212189A1, “GASTRORETENTIVE ORAL HIGH DOSE ZINC PREPARATIONS” (ADEONA PHARMACEUTICALS, INC., priority 2009, published 2011).

Settings: 50 mg elemental zinc taken with food

Q: With `O=S(=O)([O-])[O-].[Zn+2]` [zinc sulphate] as the compound, how does the nausea/vomiting effects read?
A: same effects have been observed
